Experimental data reported in patent US9365522B2, “Pyrazole amide derivative” (AMGEN INC., priority 2015, dated 2016).

Target: T1, ligand binding domain of human ROR gamma (Homo sapiens, UniProt P51449)
T1 construct: NM_001001523; expressed in transfected cells; host or cells: HEK293T
T1 sequence (P51449 247-497 isoform P51449-2): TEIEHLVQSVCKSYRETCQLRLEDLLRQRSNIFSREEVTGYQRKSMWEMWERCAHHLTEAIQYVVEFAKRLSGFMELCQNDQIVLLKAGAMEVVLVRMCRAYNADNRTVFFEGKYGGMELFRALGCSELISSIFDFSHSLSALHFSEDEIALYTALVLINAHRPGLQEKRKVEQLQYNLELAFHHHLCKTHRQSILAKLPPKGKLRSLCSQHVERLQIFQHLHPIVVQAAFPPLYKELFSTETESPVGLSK
Assay: ROR gamma reporter gene assay (GAL4-RORγ LBD luciferase, Dual-Glo)
Format: cell-based
Conditions: HEK293T cells transfected with pM-ROR gamma, 8 concentrations 3.5 nM to 10.5 μM, 24 h incubation; read-out: result (pIC50, inhibition of RORγ transcriptional activity) (converted)
Method in brief: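 HEK293T cells co-transfected with GAL4-DBD fused to human RORγ LBD (aa 247-497), 5×UAS firefly luciferase reporter and CMV-renilla, in charcoal-stripped serum.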

IC50 | Compound
20000 pM | O=C(CN(C(=O)c1cnn([C@H]2CC[C@H](C(=O)O)CC2)c1C(F)(F)F)[C@H]1CC[C@@H](C(F)(F)F)CC1)c1c(Cl)cncc1Cl [Example 212, trans-4-(4-((2-(3,5-dichloropyridin-4-yl)-2-oxoethyl)-(4-(trifluoromethyl)cyclohexyl)carbamoyl)-5-(trifluoromethyl)pyrazol-1-yl)cyclohexane-1-carboxylic acid]
5010 pM | CC1(C)[C@@H]2C[C@H](N(CC(=O)c3c(Cl)cc(F)cc3Cl)C(=O)c3cnn([C@H]4CC[C@](C)(C(=O)O)CC4)c3C(F)(F)F)C[C@@H]21 [Example 199, trans-4-(4-((2-(2,6-dichloro-4-fluorophenyl)-2-oxoethyl)-((1R,3r,5S)-6,6-dimethyl-3-bicyclo[3.1.0]hexanyl)carbamoyl)-5-(trifluoromethyl)pyrazol-1-yl)-1-methylcyclohexane-1-carboxylic acid]
> 1e+07 pM | O=C(CN(Cc1cc(F)cc(F)c1)C(=O)c1cnn([C@H]2CC[C@H](C(=O)O)CC2)c1C(F)(F)F)c1ccc(O)cc1 [Example 69, trans-4-(4-((3,5-difluorobenzyl)(2-(4-hydroxyphenyl)-2-oxoethyl)carbamoyl)-5-(trifluoromethyl)-1H-pyrazol-1-yl)cyclohexanecarboxylic acid]
4370 pM | O=C(c1cnn([C@H]2CC[C@H](C(=O)O)CC2)c1C(F)(F)F)N(Cc1ccc(F)cc1)CC(F)c1c(Cl)cccc1Cl (stereo partly drawn) [Example 91, trans-4-(4-((2-(2,6-dichlorophenyl)-2-fluoroethyl)(4-fluorobenzyl)carbamoyl) (trifluoromethyl)-1H-pyrazol-1-yl)cyclohexanecarboxylic acid]
355000 pM | COc1cccc(OC)c1C(=O)CN(Cc1cc(F)cc(F)c1)C(=O)c1cnn([C@H]2CC[C@H](C(=O)O)CC2)c1C(F)(F)F [Example 111, trans-4-(4-((3,5-difluorophenyl)methyl-(2-(2,6-dimethoxyphenyl)-2-oxoethyl)carbamoyl)-5-(trifluoromethyl)pyrazol-1-yl)cyclohexane-1-carboxylic acid]
263000 pM | COC(C)(C)CN(CC(=O)c1c(Cl)cncc1Cl)C(=O)c1cnn([C@H]2CC[C@H](C(=O)O)CC2)c1C(F)(F)F [Example 74, trans-4-(4-((2-(3,5-dichloropyridin-4-yl)-2-oxoethyl)(2-methoxy-2-methylpropyl)carbamoyl)-5-(trifluoromethyl)-1H-pyrazol-1-yl)cyclohexanecarboxylic acid]
> 1e+07 pM | O=C(CN(Cc1cc(F)cc(F)c1)C(=O)c1cnn([C@H]2CC[C@H](C(=O)O)CC2)c1C(F)(F)F)c1cc(F)cc(F)c1 [Example 60, trans-4-(4-((3,5-difluorobenzyl)(2-(3,5-difluorophenyl)-2-oxoethyl)carbamoyl)-5-(trifluoromethyl)-1H-pyrazol-1-yl)cyclohexanecarboxylic acid]
10000 pM | C[C@]1(C(=O)O)CC[C@H](n2ncc(C(=O)N(CC(=O)c3c(Cl)cncc3Cl)Cc3cc(F)cc(F)c3)c2C(F)(F)F)CC1 [Example 78, trans-4-(4-((2-(3,5-dichloropyridin-4-yl)-2-oxoethyl)(3,5-difluorobenzyl)carbamoyl)-5-(trifluoromethyl)-1H-pyrazol-1-yl)-1-methylcyclohexanecarboxylic acid]
105000 pM | CC1(C)CCC(CN(CC(=O)c2c(Cl)cc(F)cc2Cl)C(=O)c2cnn([C@H]3CC[C@](C)(C(=O)O)CC3)c2C(F)(F)F)CC1 [Example 220, trans-4-(4-((2-(2,6-dichloro-4-fluorophenyl)-2-oxoethyl)-((4,4-dimethylcyclohexyl)methyl)carbamoyl)-5-(trifluoromethyl)pyrazol-1-yl)-1-methylcyclohexane-1-carboxylic acid]
209000 pM | O=C(CN(Cc1cccc(O)c1)C(=O)c1cnn([C@H]2CC[C@H](C(=O)O)CC2)c1C(F)(F)F)c1c(Cl)cncc1Cl [Example 153, trans-4-(4-((2-(3,5-dichloropyridin-4-yl)-2-oxoethyl)-((3-hydroxyphenyl)methyl)carbamoyl)-5-(trifluoromethyl)pyrazol-1-yl)cyclohexane-1-carboxylic acid]
> 1e+07 pM | O=C(O)c1cc(Cl)c(C(=O)CN(Cc2cc(F)cc(F)c2)C(=O)c2cnn([C@H]3CC[C@H](C(=O)O)CC3)c2C(F)(F)F)c(Cl)c1 [Example 98, trans-4-(2-((1-(4-carboxycyclohexyl)-5-(trifluoromethyl)pyrazole-4-carbonyl)-((3,5-difluorophenyl)methyl)amino)acetyl)-3,5-dichlorobenzoic acid]
245000 pM | Cc1ccnc(C)c1C(=O)CN(Cc1cc(F)cc(F)c1)C(=O)c1cnn([C@H]2CC[C@H](C(=O)O)CC2)c1C(F)(F)F [Example 134, trans-4-(4-((3,5-difiuorophenyl)methyl-(2-(2,4-dimethylpyridin-3-yl)-2-oxoethyl)carbamoyl)-5-(trifluoromethyl)pyrazol-1-yl)cyclohexane-1-carboxylic acid]
18600 pM | CC1(C)[C@@H]2C[C@H](N(CC(=O)c3c(Cl)cccc3Cl)C(=O)c3cnn([C@H]4CC[C@](C)(C(=O)O)CC4)c3C3CC3)C[C@@H]21 [Example 385, trans-4-(5-cyclopropyl-4-((2-(2,6-dichlorophenyl)-2-oxoethyl)((1R,3r,5S)-6,6-dimethylbicyclo[3.1.0]hexan-3-yl)carbamoyl)-1H-pyrazol-1-yl)-1-methylcyclohexanecarboxylic acid]
74100 pM | CC1(CN(CC(=O)c2c(Cl)cncc2Cl)C(=O)c2cnn([C@H]3CC[C@](C)(C(=O)O)CC3)c2Cl)CC1 [Example 378, trans-4-(5-chloro-4-((2-(3,5-dichloropyridin-4-yl)-2-oxoethyl)-((1-methylcyclopropyl)methyl)carbamoyl)pyrazol-1-yl)-1-methylcyclohexane-1-carboxylic acid]
40700 pM | O=C(CN(CC12CCC(CC1)O2)C(=O)c1cnn([C@H]2CC[C@H](C(=O)O)CC2)c1C(F)(F)F)c1c(Cl)cncc1Cl [Example 262, trans-4-(4-((2-(3,5-dichloropyridin-4-yl)-2-oxoethyl)-(7-oxabicyclo[2.2.1]heptan-4-ylmethyl)carbamoyl)-5-(trifluoromethyl)pyrazol-1-yl)cyclohexane-1-carboxylic acid]
158000 pM | C[C@@H](N(CC(=O)c1c(Cl)cncc1Cl)C(=O)c1cnn([C@H]2CC[C@H](C(=O)O)CC2)c1C(F)(F)F)C(C)(C)C [Example 115, trans-4-(4-((2-(3,5-dichloropyridin-4-yl)-2-oxoethyl)-((2R)-3,3-dimethylbutan-2-yl)carbamoyl)-5-(trifluoromethyl)pyrazol-1-yl)cyclohexane-1-carboxylic acid]
70800 pM | O=C(CN(Cc1cc(F)cc(F)c1)C(=O)c1cnn([C@H]2CC[C@H](C(=O)O)CC2)c1C(F)F)c1c(Cl)cncc1Cl [Example 20, trans-4-(4-((2-(3,5-Dichloropyridin-4-yl)-2-oxoethyl)(3,5-difluorobenzyl)carbamoyl)-5-(difluoromethyl)-1H-pyrazol-1-yl)cyclohexanecarboxylic acid]
324000 pM | CC(C)(C)[C@H]1C[C@H](CN(CC(=O)c2c(Cl)cncc2Cl)C(=O)c2cnn([C@H]3CC[C@H](C(=O)O)CC3)c2C(F)(F)F)C1 [Example 125, trans-4-(4-((3-tert-butylcyclobutyl)methyl-(2-(3,5-dichloropyridin-4-yl)-2-oxoethyl)carbamoyl)-5-(trifluoromethyl)pyrazol-1-yl)cyclohexane-1-carboxylic acid]
1.58e+06 pM | CC(C)(C)OC1CC(CN(CC(=O)c2c(Cl)cncc2Cl)C(=O)c2cnn([C@H]3CC[C@](C)(C(=O)O)CC3)c2C(F)(F)F)C1 (stereo partly drawn) [Example 344, trans-4-(4-((2-(3,5-dichloropyridin-4-yl)-2-oxoethyl)-((3-((2-methylpropan-2-yl)oxy)cyclobutyl)methyl)carbamoyl)-5-(trifluoromethyl)pyrazol-1-yl)-1-methylcyclohexane-1-carboxylic acid]
20400 pM | CCC(F)(CC)CN(CC(=O)c1c(Cl)cncc1Cl)C(=O)c1cnn([C@H]2CC[C@](C)(C(=O)O)CC2)c1C(F)(F)F [Example 394, trans-4-(4-((2-(3,5-dichloropyridin-4-yl)-2-oxoethyl)-(2-ethyl-2-fluorobutyl)carbamoyl)-5-(trifluoromethyl)pyrazol-1-yl)-1-methylcyclohexane-1-carboxylic acid]
66100 pM | O=C(CN(C(=O)c1cnn([C@H]2CC[C@H](C(=O)O)CC2)c1C(F)(F)F)C1CCC2(CC1)CC2)c1c(Cl)cncc1Cl [Example 182, trans-4-(4-((2-(3,5-dichloropyridin-4-yl)-2-oxoethyl)-spiro[2,5]octan-6-ylcarbamoyl)-5-(trifluoromethyl)pyrazol-1-yl)cyclohexane-1-carboxylic acid]
1.02e+06 pM | CC[C@]1(C(=O)O)CC[C@H](n2ncc(C(=O)N(CC(=O)c3c(Cl)cncc3Cl)Cc3cc(F)cc(F)c3)c2C(F)(F)F)CC1 [Example 156, trans-4-(4-((2-(3,5-dichloropyridin-4-yl)-2-oxoethyl)-((3,5-difluorophenyl)methyl)carbamoyl)-5-(trifluoromethyl)pyrazol-1-yl)-1-ethylcyclohexane-1-carboxylic acid]
